Legend:
[1] = test system: SBC-3 (Small Cell Lung Carcinoma); assay: Bliss excess, mean over the matrix (fraction); higher = more synergy
Procedure, shortened: (§1)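 Cell lines in DMEM/F12 or RPMI with 10% FBS were plated in 1536-well plates, held 24 hours at 37°C, 5% CO2, then given two-drug dose matrices for 72 hours (DMSO typically 0.2%). Viability was read by CellTiter-Glo 2.0 luminescence and scaled as inhibition from 0 (vehicle wells) to 1 (blank wells). Combination Emax is the second-highest inhibition in the matrix; Bliss excess is observed combination effect minus expected EA + EB − EA·EB, EA and EB being single-agent effects.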

[2] = test system: NCI-H1648 (Lung Adenocarcinoma); assay: as above
Procedure, shortened: as §1

[3] = test system: KNS-62 (Squamous Cell Lung Carcinoma); assay: as above
Procedure, shortened: as §1

[4] = test system: L-363 (Plasma Cell Myeloma); assay: as above
Procedure, shortened: as §1

[5] = test system: NTERA-2-cl-D1 (Other Solid Carcinomas); assay: as above
Procedure, shortened: as §1

[6] = test system: SW1463 (Colorectal Carcinoma); assay: as above
Procedure, shortened: as §1

[7] = test system: NCI-H2009 (Lung Adenocarcinoma); assay: as above
Procedure, shortened: as §1

C32 (Melanoma) [8] = assay: as above
Procedure, shortened: as §1

[9] = test system: NCI-H835 (Other Solid Carcinomas); assay: as above
Procedure, shortened: as §1

GCIY (Gastric Carcinoma) [10] = assay: as above
Procedure, shortened: as §1

[11] = test system: MRK-nu-1 (Breast Carcinoma); assay: as above
Procedure, shortened: as §1

[12] = test system: CAL-85-1 (Breast Carcinoma); assay: as above
Procedure, shortened: as §1

[13] = test system: COR-L105 (Lung Adenocarcinoma); assay: as above
Procedure, shortened: as §1

[14] = test system: BC-1 (B-Cell Non-Hodgkin's Lymphoma); assay: as above
Procedure, shortened: as §1

MG-63 (Osteosarcoma) [15] = assay: as above
Procedure, shortened: as §1

[16] = test system: RPMI-8402 (T-Lymphoblastic Leukemia); assay: as above
Procedure, shortened: as §1

SK-MEL-24 (Melanoma) [17] = assay: as above
Procedure, shortened: as §1

[18] = test system: OVKATE (Ovarian Carcinoma); assay: as above
Procedure, shortened: as §1

[19] = test system: NCI-H2023 (Non-Small Cell Lung Carcinoma); assay: as above
Procedure, shortened: as §1

[20] = test system: MDA-MB-175-VII (Breast Carcinoma); assay: as above
Procedure, shortened: as §1

NCI-H2452 (Mesothelioma) [21] = assay: as above
Procedure, shortened: as §1

A375 (Melanoma) [22] = assay: as above
Procedure, shortened: as §1

[23] = test system: NCI-H1435 (Non-Small Cell Lung Carcinoma); assay: as above
Procedure, shortened: as §1

[24] = test system: SBC-3 (Small Cell Lung Carcinoma); assay: combination Emax (second highest fraction inhibited in the dose matrix, 72 h); higher = more inhibition; extreme values may be limits of the assay
Procedure, shortened: as §1

[25] = test system: NCI-H1648 (Lung Adenocarcinoma); assay: as above
Procedure, shortened: as §1

[26] = test system: KNS-62 (Squamous Cell Lung Carcinoma); assay: as above
Procedure, shortened: as §1

[27] = test system: L-363 (Plasma Cell Myeloma); assay: as above
Procedure, shortened: as §1

[28] = test system: NTERA-2-cl-D1 (Other Solid Carcinomas); assay: as above
Procedure, shortened: as §1

[29] = test system: SW1463 (Colorectal Carcinoma); assay: as above
Procedure, shortened: as §1

[30] = test system: NCI-H2009 (Lung Adenocarcinoma); assay: as above
Procedure, shortened: as §1

C32 (Melanoma) [31] = assay: as above
Procedure, shortened: as §1

[32] = test system: NCI-H835 (Other Solid Carcinomas); assay: as above
Procedure, shortened: as §1

GCIY (Gastric Carcinoma) [33] = assay: as above
Procedure, shortened: as §1

[34] = test system: MRK-nu-1 (Breast Carcinoma); assay: as above
Procedure, shortened: as §1

[35] = test system: CAL-85-1 (Breast Carcinoma); assay: as above
Procedure, shortened: as §1

[36] = test system: COR-L105 (Lung Adenocarcinoma); assay: as above
Procedure, shortened: as §1

[37] = test system: BC-1 (B-Cell Non-Hodgkin's Lymphoma); assay: as above
Procedure, shortened: as §1

MG-63 (Osteosarcoma) [38] = assay: as above
Procedure, shortened: as §1

[39] = test system: RPMI-8402 (T-Lymphoblastic Leukemia); assay: as above
Procedure, shortened: as §1

SK-MEL-24 (Melanoma) [40] = assay: as above
Procedure, shortened: as §1

[41] = test system: OVKATE (Ovarian Carcinoma); assay: as above
Procedure, shortened: as §1

[42] = test system: NCI-H2023 (Non-Small Cell Lung Carcinoma); assay: as above
Procedure, shortened: as §1

[43] = test system: MDA-MB-175-VII (Breast Carcinoma); assay: as above
Procedure, shortened: as §1

NCI-H2452 (Mesothelioma) [44] = assay: as above
Procedure, shortened: as §1

A375 (Melanoma) [45] = assay: as above
Procedure, shortened: as §1

[46] = test system: NCI-H1435 (Non-Small Cell Lung Carcinoma); assay: as above
Procedure, shortened: as §1
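For Bliss excess, mean over the matrix in this document: after 72 h of two-drug dosing.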

`CN(CCO)CC[C@H](CSc1ccccc1)Nc1ccc(S(=O)(=O)NC(=O)c2ccc(N3CCC([C@@H](O)c4ccccc4-c4ccc(Cl)cc4)CC3)cc2)cc1S(=O)(=O)C(F)(F)F` [AZD4320] + CC(=O)O[C@H]1C(=O)[C@@]2(C)[C@H]([C@H](OC(=O)c3ccccc3)[C@]3(O)C[C@H](OC(=O)[C@H](O)[C@@H](NC(=O)c4ccccc4)c4ccccc4)C(C)=C1C3(C)C)[C@]1(OC(C)=O)CO[C@@H]1C[C@@H]2O [Paclitaxel] (first compound max 1 µM, 7x7, partner max 3 µM) showed a Bliss excess [1] of 0.0387, a Bliss excess [2] of -0.0009 and a Bliss excess [3] of 0.185. For the same molecule, the Bliss excess [4] was -0.0131, the Bliss excess [5] was 0.0025 and the Bliss excess [6] was 0.0662. It also gave a Bliss excess [7] of 0.0889, a Bliss excess (C32 (Melanoma) [8]) of 0.107 and a Bliss excess [9] of 0.199. It also gave a Bliss excess (GCIY (Gastric Carcinoma) [10]) of 0.131, a Bliss excess [11] of 0.0162 and a Bliss excess [12] of 0.0773. It also gave a Bliss excess [13] of 0.0195, a Bliss excess [14] of 0.0045 and a Bliss excess (MG-63 (Osteosarcoma) [15]) of 0.0471. It also gave a Bliss excess [16] of -0.0038, a Bliss excess (SK-MEL-24 (Melanoma) [17]) of 0.0574 and a Bliss excess [18] of 0.113. It also gave a Bliss excess [19] of 0.0458, a Bliss excess [20] of 0.107 and a Bliss excess (NCI-H2452 (Mesothelioma) [21]) of 0.117. The Bliss excess (A375 (Melanoma) [22]) was 0.0759, the Bliss excess [23] was 0.167 and the “combination Emax” value [24] was 1. The “combination Emax” value [25] was 0.936, the “combination Emax” value [26] was 0.957 and the “combination Emax” value [27] was 1. For the same molecule, the “combination Emax” value [28] was 0.754, the “combination Emax” value [29] was 0.767 and the “combination Emax” value [30] was 0.933. For the same molecule, the “combination Emax” value (C32 (Melanoma) [31]) was 0.864, the “combination Emax” value [32] was 1 and the “combination Emax” value (GCIY (Gastric Carcinoma) [33]) was 0.952. For the same molecule, the “combination Emax” value [34] was 1, the “combination Emax” value [35] was 0.884 and the “combination Emax” value [36] was 0.695. The “combination Emax” value [37] was 1, the “combination Emax” value (MG-63 (Osteosarcoma) [38]) was 1 and the “combination Emax” value [39] was 1. The “combination Emax” value (SK-MEL-24 (Melanoma) [40]) was 0.888, the “combination Emax” value [41] was 0.629 and the “combination Emax” value [42] was 0.776. The “combination Emax” value [43] was 0.766, the “combination Emax” value (NCI-H2452 (Mesothelioma) [44]) was 0.983 and the “combination Emax” value (A375 (Melanoma) [45]) was 0.992. The “combination Emax” value [46] was 0.929.
`C=CCn1c(=O)c2cnc(Nc3ccc(N4CCN(C)CC4)cc3)nc2n1-c1cccc(C(C)(C)O)n1` [AZD1775] + Nc1ccn([C@@H]2O[C@H](CO)[C@@H](O)C2(F)F)c(=O)n1 [Gemcitabine] (first compound max 1 µM, partner max 0.3 µM) showed a Bliss excess [1] of -0.0105, a Bliss excess [2] of -0.0038 and a Bliss excess [3] of 0.0179. It also gave a Bliss excess [4] of 0.125, a Bliss excess [5] of -0.062 and a Bliss excess [6] of -0.0109. It also gave a Bliss excess [7] of 0.0606, a Bliss excess (C32 (Melanoma) [8]) of -0.0569 and a Bliss excess [9] of -0.0789. For the same molecule, the Bliss excess (GCIY (Gastric Carcinoma) [10]) was 0.0465, the Bliss excess [11] was 0.045 and the Bliss excess [12] was 0.0733. It also gave a Bliss excess [13] of -0.0263, a Bliss excess [14] of 0.0191 and a Bliss excess (MG-63 (Osteosarcoma) [15]) of 0.0581. For the same molecule, the Bliss excess [16] was 0.0141, the Bliss excess (SK-MEL-24 (Melanoma) [17]) was 0.0069 and the Bliss excess [18] was -0.0681. For the same molecule, the Bliss excess [19] was 0.0248, the Bliss excess [20] was -0.0105 and the Bliss excess (NCI-H2452 (Mesothelioma) [21]) was -0.0727. For the same molecule, the Bliss excess (A375 (Melanoma) [22]) was 0.0519, the Bliss excess [23] was -0.0012 and the “combination Emax” value [24] was 0.949. The “combination Emax” value [25] was 0.643, the “combination Emax” value [26] was 0.561 and the “combination Emax” value [27] was 0.983. For the same molecule, the “combination Emax” value [28] was 0.614, the “combination Emax” value [29] was 0.763 and the “combination Emax” value [30] was 0.907. For the same molecule, the “combination Emax” value (C32 (Melanoma) [31]) was 0.701, the “combination Emax” value [32] was 0.476 and the “combination Emax” value (GCIY (Gastric Carcinoma) [33]) was 0.764. The “combination Emax” value [34] was 0.688, the “combination Emax” value [35] was 0.697 and the “combination Emax” value [36] was 0.428. For the same molecule, the “combination Emax” value [37] was 0.995, the “combination Emax” value (MG-63 (Osteosarcoma) [38]) was 0.955 and the “combination Emax” value [39] was 1. The “combination Emax” value (SK-MEL-24 (Melanoma) [40]) was 0.793, the “combination Emax” value [41] was 0.261 and the “combination Emax” value [42] was 0.656. The “combination Emax” value [43] was 0.456, the “combination Emax” value (NCI-H2452 (Mesothelioma) [44]) was 0.693 and the “combination Emax” value (A375 (Melanoma) [45]) was 0.966. The “combination Emax” value [46] was 0.345.
`O=C(c1cc(Cc2n[nH]c(=O)c3ccccc23)ccc1F)N1CCN(C(=O)C2CC2)CC1` [Olaparib] + CN(CC[C@H](CSC1=CC=CC=C1)NC2=C(C=C(C=C2)S(=O)(=O)NC(=O)C3=CC=C(C=C3)N4CCC(CC4)[C@H](C5=CC=CC=C5C6=CC=C(C=C6)Cl)O)S(=O)(=O)C(F)(F)F)CCO [AZD4320] (first compound max 10 µM, 7x7, partner max 1 µM) showed a Bliss excess [1] of 0.0197, a Bliss excess [2] of -0.0497 and a Bliss excess [3] of -0.0436. The Bliss excess [4] was 0.0718, the Bliss excess [5] was 0.0258 and the Bliss excess [6] was 0.0073. The Bliss excess [7] was -0.0603, the Bliss excess (C32 (Melanoma) [8]) was -0.0529 and the Bliss excess [9] was -0.043. For the same molecule, the Bliss excess (GCIY (Gastric Carcinoma) [10]) was 0.0025, the Bliss excess [11] was 0.0031 and the Bliss excess [12] was 0.0221. The Bliss excess [13] was -0.049, the Bliss excess [14] was 0.061 and the Bliss excess (MG-63 (Osteosarcoma) [15]) was -0.0185. It also gave a Bliss excess [16] of 0.0077, a Bliss excess (SK-MEL-24 (Melanoma) [17]) of -0.0365 and a Bliss excess [18] of -0.0469. It also gave a Bliss excess [19] of -0.041, a Bliss excess [20] of -0.0001 and a Bliss excess (NCI-H2452 (Mesothelioma) [21]) of -0.0697. The Bliss excess (A375 (Melanoma) [22]) was -0.0091, the Bliss excess [23] was -0.0086 and the “combination Emax” value [24] was 0.842. For the same molecule, the “combination Emax” value [25] was 0.359, the “combination Emax” value [26] was 0.153 and the “combination Emax” value [27] was 0.403. The “combination Emax” value [28] was 0.689, the “combination Emax” value [29] was 0.333 and the “combination Emax” value [30] was 0.112. For the same molecule, the “combination Emax” value (C32 (Melanoma) [31]) was 0.253, the “combination Emax” value [32] was 0.951 and the “combination Emax” value (GCIY (Gastric Carcinoma) [33]) was 0.643. For the same molecule, the “combination Emax” value [34] was 0.395, the “combination Emax” value [35] was 0.342 and the “combination Emax” value [36] was 0.219. The “combination Emax” value [37] was 0.348, the “combination Emax” value (MG-63 (Osteosarcoma) [38]) was 0.332 and the “combination Emax” value [39] was 0.935. The “combination Emax” value (SK-MEL-24 (Melanoma) [40]) was 0.177, the “combination Emax” value [41] was 0.168 and the “combination Emax” value [42] was 0.165. For the same molecule, the “combination Emax” value [43] was 0.389, the “combination Emax” value (NCI-H2452 (Mesothelioma) [44]) was 0.182 and the “combination Emax” value (A375 (Melanoma) [45]) was 0.24. For the same molecule, the “combination Emax” value [46] was 0.729.
